What was measured:
[1] = target: Sodium-dependent dopamine transporter (Homo sapiens, UniProt Q01959)
[2] = target: T1, Alpha-1A adrenergic receptor (Homo sapiens, UniProt P35348); assay type: functional, cell-based
T1 sequence (P35348 whole entry): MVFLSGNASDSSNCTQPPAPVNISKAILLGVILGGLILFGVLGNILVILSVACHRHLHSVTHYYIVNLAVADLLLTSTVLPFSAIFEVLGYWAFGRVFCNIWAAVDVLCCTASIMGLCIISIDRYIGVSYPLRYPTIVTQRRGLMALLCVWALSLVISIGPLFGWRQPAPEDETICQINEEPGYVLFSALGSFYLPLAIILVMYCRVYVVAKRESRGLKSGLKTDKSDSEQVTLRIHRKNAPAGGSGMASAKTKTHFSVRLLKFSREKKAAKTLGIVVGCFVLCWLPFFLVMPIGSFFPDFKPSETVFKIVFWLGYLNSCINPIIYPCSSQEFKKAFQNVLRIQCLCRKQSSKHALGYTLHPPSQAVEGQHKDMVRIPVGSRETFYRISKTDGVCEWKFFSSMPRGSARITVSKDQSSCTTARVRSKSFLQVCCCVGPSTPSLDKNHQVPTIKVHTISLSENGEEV

[3] = target: T2, Thromboxane A2 receptor (Homo sapiens, UniProt P21731); assay type: functional, cell-based
T2 sequence (P21731 whole entry): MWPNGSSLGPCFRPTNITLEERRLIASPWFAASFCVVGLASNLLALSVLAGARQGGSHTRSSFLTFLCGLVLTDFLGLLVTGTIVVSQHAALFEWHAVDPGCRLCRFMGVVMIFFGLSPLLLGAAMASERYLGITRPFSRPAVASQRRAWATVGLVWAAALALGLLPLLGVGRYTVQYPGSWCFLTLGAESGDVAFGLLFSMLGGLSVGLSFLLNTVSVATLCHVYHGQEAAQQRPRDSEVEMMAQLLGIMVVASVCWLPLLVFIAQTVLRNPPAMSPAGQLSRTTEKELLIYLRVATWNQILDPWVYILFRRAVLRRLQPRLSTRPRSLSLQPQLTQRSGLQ

[4] = target: Prostaglandin G/H synthase 1 (Homo sapiens, UniProt P23219); assay type: functional
Prostaglandin G/H synthase 1, sequence (P23219 whole entry): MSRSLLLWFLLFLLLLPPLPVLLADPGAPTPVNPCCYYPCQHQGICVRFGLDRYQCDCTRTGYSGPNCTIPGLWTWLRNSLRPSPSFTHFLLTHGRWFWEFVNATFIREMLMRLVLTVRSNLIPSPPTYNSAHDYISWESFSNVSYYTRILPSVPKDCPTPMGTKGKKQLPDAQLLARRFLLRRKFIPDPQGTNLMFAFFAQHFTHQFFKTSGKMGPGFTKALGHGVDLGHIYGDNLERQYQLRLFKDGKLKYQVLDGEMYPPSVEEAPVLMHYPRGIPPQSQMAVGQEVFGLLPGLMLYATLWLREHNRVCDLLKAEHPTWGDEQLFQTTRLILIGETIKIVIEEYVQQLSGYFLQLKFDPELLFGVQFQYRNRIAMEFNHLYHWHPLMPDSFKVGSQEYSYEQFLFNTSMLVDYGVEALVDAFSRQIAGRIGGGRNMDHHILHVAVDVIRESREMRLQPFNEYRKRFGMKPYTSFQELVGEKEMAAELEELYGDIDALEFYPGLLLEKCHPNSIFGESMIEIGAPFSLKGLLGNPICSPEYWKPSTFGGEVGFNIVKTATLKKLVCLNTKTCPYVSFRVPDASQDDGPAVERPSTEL

[5] = target: T3, Alpha-2A adrenergic receptor (Homo sapiens, UniProt P08913)
T3 sequence (P08913 whole entry): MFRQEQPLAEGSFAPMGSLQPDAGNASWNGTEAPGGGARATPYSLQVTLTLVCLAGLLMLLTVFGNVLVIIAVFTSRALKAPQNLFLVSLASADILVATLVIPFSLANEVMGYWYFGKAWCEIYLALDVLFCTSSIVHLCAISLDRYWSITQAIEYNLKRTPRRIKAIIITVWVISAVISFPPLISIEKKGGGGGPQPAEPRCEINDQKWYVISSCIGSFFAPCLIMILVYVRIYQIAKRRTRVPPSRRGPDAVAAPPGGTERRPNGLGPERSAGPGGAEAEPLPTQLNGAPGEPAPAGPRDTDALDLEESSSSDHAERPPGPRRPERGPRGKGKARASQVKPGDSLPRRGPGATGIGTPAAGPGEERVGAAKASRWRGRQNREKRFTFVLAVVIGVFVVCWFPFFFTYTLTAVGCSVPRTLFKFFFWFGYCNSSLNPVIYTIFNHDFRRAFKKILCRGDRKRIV

[6] = target: T4, Muscarinic acetylcholine receptor M2 (Homo sapiens, UniProt P08172)
T4 sequence (P08172 whole entry): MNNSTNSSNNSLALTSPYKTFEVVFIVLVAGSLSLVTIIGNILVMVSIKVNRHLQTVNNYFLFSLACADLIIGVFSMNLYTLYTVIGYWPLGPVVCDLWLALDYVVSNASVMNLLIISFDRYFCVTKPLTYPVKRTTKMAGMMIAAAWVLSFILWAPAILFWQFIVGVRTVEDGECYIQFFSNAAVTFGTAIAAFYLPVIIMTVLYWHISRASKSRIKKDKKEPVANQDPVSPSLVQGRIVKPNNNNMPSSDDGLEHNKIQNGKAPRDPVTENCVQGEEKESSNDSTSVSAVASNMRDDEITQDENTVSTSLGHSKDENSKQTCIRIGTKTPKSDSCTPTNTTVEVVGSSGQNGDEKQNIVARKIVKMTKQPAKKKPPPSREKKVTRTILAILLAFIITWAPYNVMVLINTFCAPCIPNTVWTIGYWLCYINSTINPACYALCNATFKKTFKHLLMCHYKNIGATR

[7] = target: T5, Glucocorticoid receptor (Homo sapiens, UniProt P04150)
T5 sequence (P04150 whole entry): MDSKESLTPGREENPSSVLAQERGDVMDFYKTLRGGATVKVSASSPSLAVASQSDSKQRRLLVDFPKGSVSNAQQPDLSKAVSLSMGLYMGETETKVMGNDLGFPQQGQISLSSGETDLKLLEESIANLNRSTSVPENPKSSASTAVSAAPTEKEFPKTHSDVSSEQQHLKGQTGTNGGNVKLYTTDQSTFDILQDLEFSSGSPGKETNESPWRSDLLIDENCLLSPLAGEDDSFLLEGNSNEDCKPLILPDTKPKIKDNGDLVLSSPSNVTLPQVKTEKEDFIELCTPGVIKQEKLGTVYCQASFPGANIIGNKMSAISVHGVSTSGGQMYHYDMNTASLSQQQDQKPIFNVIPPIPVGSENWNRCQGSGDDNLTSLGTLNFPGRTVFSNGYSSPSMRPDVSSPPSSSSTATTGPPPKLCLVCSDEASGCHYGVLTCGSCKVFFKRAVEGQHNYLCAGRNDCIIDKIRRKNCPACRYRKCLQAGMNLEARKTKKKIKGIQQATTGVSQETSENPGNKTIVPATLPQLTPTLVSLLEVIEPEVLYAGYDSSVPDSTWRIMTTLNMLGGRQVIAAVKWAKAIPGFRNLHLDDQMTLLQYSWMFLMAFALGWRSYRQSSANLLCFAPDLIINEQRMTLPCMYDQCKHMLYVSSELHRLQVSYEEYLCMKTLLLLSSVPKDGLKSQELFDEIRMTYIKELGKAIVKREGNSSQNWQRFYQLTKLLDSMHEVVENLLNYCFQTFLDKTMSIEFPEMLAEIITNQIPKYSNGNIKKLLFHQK
Further: assay procedure not described here.

Sodium-dependent dopamine transporter, sequence (Q01959 whole entry): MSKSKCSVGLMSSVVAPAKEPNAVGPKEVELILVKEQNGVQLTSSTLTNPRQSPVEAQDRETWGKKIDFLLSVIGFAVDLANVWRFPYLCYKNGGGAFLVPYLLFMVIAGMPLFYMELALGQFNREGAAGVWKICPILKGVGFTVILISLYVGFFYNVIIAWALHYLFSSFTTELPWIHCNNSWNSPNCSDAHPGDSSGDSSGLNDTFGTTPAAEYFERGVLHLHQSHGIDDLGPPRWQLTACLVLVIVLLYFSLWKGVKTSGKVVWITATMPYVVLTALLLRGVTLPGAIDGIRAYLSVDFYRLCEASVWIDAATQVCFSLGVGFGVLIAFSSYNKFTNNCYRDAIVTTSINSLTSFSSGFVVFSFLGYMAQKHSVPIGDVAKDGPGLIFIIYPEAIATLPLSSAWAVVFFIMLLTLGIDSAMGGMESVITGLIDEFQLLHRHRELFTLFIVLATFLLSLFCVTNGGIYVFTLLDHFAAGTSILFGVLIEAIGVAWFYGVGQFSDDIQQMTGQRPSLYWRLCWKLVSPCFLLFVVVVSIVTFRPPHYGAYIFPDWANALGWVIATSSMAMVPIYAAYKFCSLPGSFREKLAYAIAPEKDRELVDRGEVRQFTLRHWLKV

Compound | AC50 [1] [µM] | AC50 [7] [µM] | AC50 [2] [µM] | AC50 [3] [µM] | AC50 [4] [µM] | AC50 [5] [µM] | AC50 [6] [µM]
O=C(O)[C@@H](S)[C@@H](S)C(=O)O |  |  |  | > 30 | > 30 | > 30 | > 30
CCC[C@@]1(CCc2ccccc2)CC(O)=C([C@H](CC)c2cccc(NS(=O)(=O)c3ccc(C(F)(F)F)cn3)c2)C(=O)O1 | 27 |  | > 30 |  |  |  | 
CC#CC(=O)N1CCC[C@H]1c1nc(-c2ccc(C(=O)Nc3ccccn3)cc2)c2c(N)nccn12 [ACALABRUTINIB] |  |  |  | > 30 | > 30 | > 30 | > 30
CC[N+](CC)(CCNC(=O)C(=O)NCC[N+](CC)(CC)Cc1ccccc1Cl)Cc1ccccc1Cl [AMBENONIUM] | > 30 |  |  |  |  |  | 
CN1CC2c3ccccc3Oc3ccc(Cl)cc3C2C1 (stereo not given) [ASENAPINE] | 11 |  | > 30 |  |  |  | 
CC(C)NCC(O)COc1ccc(CC(N)=O)cc1 (stereo not given) [ATENOLOL] |  |  | > 30 |  |  |  | 
Cn1cnc2c(F)c(Nc3ccc(Br)cc3F)c(C(=O)NOCCO)cc21 [BINIMETINIB] | > 30 |  | > 30 |  |  |  | 
O=C(Cc1cccs1)N[C@@H]1C(=O)N2C(C(=O)[O-])=C(C[n+]3ccccc3)CS[C@H]12 [CEPHALORIDINE] |  |  | > 30 | > 30 | 16.4 | > 30 | > 30
C[C@H](CCC(=O)O)[C@H]1CC[C@H]2[C@@H]3[C@H](O)C[C@@H]4C[C@H](O)CC[C@]4(C)[C@H]3CC[C@]12C [CHENODIOL] | > 30 |  | > 30 |  |  |  | 
CCCCCCCCCCCCCCCC(=O)OC[C@H](COP(=O)([O-])OCC[N+](C)(C)C)OC(=O)CCCCCCCCCCCCCCC [COLFOSCERIL PALMITATE] |  |  |  | > 30 | > 30 | > 30 | > 30
C[C@H](Nc1ncnc2[nH]cnc12)c1cc2cccc(Cl)c2c(=O)n1-c1ccccc1 [DUVELISIB] | > 30 |  | > 30 | 15.1 | > 30 | > 30 | > 30
C[C@@H](O)[C@H]1C(=O)N2C(C(=O)O)=C(SCCN=CN)C[C@H]12 [IMIPENEM ANHYDROUS] | > 300 |  | > 300 |  |  |  | 
CO[C@@]1(NC(=O)C(C(=O)O)c2ccc(O)cc2)C(=O)N2C(C(=O)O)=C(CSc3nnnn3C)CO[C@@H]21 (stereo not given in full) [MOXALACTAM] |  |  |  | > 30 | 9.25 | > 30 | > 30
CS(=O)(=O)Nc1ccc([N+](=O)[O-])cc1Oc1ccccc1 [NIMESULIDE] | 9 |  | > 30 | > 30 |  | > 30 | > 30
CO[C@@H]1[C@@H](OC(N)=O)[C@@H](O)[C@H](Oc2ccc3c(O)c(NC(=O)c4ccc(O)c(CC=C(C)C)c4)c(=O)oc3c2C)OC1(C)C [NOVOBIOCIN] | > 30 |  | > 30 |  |  |  | 
CCCCCCCC/C=C\CCCCCCCC(=O)O [OLEIC ACID] |  |  |  | 25.3 | 6.68 | > 30 | > 30
C#CCN(C)Cc1ccccc1 [PARGYLINE] |  |  | > 30 | > 30 | > 30 | > 30 | > 30
COc1cccc2c1C(=O)c1c(O)c3c(c(O)c1C2=O)C[C@@](O)(C(=O)CO)C[C@@H]3O[C@H]1C[C@H](N)[C@H](O[C@@H]2CCCCO2)[C@H](C)O1 [PIRARUBICIN] |  |  |  | > 10 | 0.5 | > 30 | > 30
c1cnc2cc3c(cc2n1)[C@@H]1CNC[C@H]3C1 [VARENICLINE] | > 30 |  | > 30 |  |  |  | 

More lines, main results first:

AC50 [1] [µM] | AC50 [7] [µM] | Compound | AC50 [2] [µM] | AC50 [3] [µM] | AC50 [4] [µM] | AC50 [5] [µM] | AC50 [6] [µM]
> 30 |  | CCOCC(O)COc1ccc(NC(=O)CC[S+](C)C)cc1 (stereo not given) | > 30 |  |  |  | 
> 30 |  | C=CC1=C(C(=O)O)N2C(=O)[C@@H](NC(=O)/C(=N\O)c3csc(N)n3)[C@H]2SC1 | > 30 |  |  |  | 
> 30 |  | O=C(O)COC(=O)Cc1ccccc1Nc1c(Cl)cccc1Cl [ACECLOFENAC] | > 30 |  |  |  | 
> 30 |  | CN(C)CCc1c[nH]c2ccc(CS(=O)(=O)N3CCCC3)cc12 [ALMOTRIPTAN] | > 30 |  |  |  | 
12.7 | > 10 | NCCCCCC(=O)O [AMINOCAPROIC ACID] |  |  |  |  | 
> 30 | > 30 | CC(C)C[C@H](NC(=O)[C@H](Cc1ccccc1)NC(=O)c1cnccn1)B(O)O [BORTEZOMIB] |  |  |  |  | 
> 30 |  | O=C(O)[C@H]1/C(=C/CO)O[C@@H]2CC(=O)N21 [CLAVULANIC ACID] | > 30 |  |  |  | 
> 30 |  | C[C@]12CCC(=O)C=C1CC[C@H]1[C@@H]3CC[C@](O)(C(=O)CO)[C@@]3(C)C[C@H](O)[C@@]12F [FLUDROCORTISONE] | > 30 |  |  |  | 
> 30 | > 30 | CCOC(=O)Nc1ccc(NCc2ccc(F)cc2)nc1N [FLUPIRTINE] |  |  |  |  | 
> 10 | > 10 | CCN(CCO)CCCC(C)Nc1ccnc2cc(Cl)ccc12 (stereo not given) [HYDROXYCHLOROQUINE] |  |  |  |  | 
> 10 |  | OCCOCCN1CCN(C(c2ccccc2)c2ccc(Cl)cc2)CC1 (stereo not given) [HYDROXYZINE] | > 30 |  |  |  | 
> 10 |  | O=C(c1ccccc1)c1ccc2n1CCC2C(=O)O (stereo not given) [KETOROLAC] | > 30 |  |  |  | 
> 10 |  | Nc1nnc(-c2cccc(Cl)c2Cl)c(N)n1 [LAMOTRIGINE] | > 30 |  |  |  | 
> 10 | > 10 | CNC1(C)C2CCC(C2)C1(C)C (stereo not given) [MECAMYLAMINE] |  |  |  |  | 
> 10 | > 10 | CCC1(c2ccccc2)C(=O)NCNC1=O [PRIMIDONE] |  |  |  |  | 
> 30 | > 30 | CC(=O)SCC(Cc1ccccc1)C(=O)NCC(=O)OCc1ccccc1 (stereo not given) [RACECADOTRIL] |  |  |  |  | 
> 30 |  | CCOc1ccccc1OCCN[C@H](C)Cc1ccc(OC)c(S(N)(=O)=O)c1 [TAMSULOSIN] |  |  |  |  | 
> 30 |  | COc1cc2c(cc1OC)C1CC(=O)C(CC(C)C)CN1CC2 (stereo not given) [TETRABENAZINE] | > 30 |  |  |  | 
> 30 |  | CC(C)(CO)c1cc2cc(NC(=O)C3(c4ccc5c(c4)OC(F)(F)O5)CC3)c(F)cc2n1C[C@@H](O)CO [TEZACAFTOR] | > 30 |  |  |  | 
> 30 |  | Nc1c2c(nc3ccccc13)CCCC2O (stereo not given) [VELNACRINE] | > 30 |  |  |  | 
